Source: patent publication US20250032676A1, “3D HYDROGEL COMPOSITE HAVING CANCER CELL APOPTOTIC EFFECT AND PREPARATION METHOD THEREOF” (DONGGUK UNIVERSITY INDUSTRY-ACADEMIC COOPERATION FOUNDATION, priority 2022, published 2025)

System: MDA-MB-231 breast cancer cells
Assay: Cell killing by 6-MP released from hydrogel versus 6-MP at same concentration, WST-1 assay
Format: cell-based
Settings: 24 h treatment, same 6-MP concentration; FIG. 12
Procedure: The apoptotic effect resulting from the release of anticancer agents was confirmed by comparing the effects of anticancer agents released due to chemical bond cleavage during photoirradiation with that of anticancer agents at the same concentration.
The three-dimensional hydrogels prepared according to Examples 1 to 3 to have a diameter of 8 mm and a height of 2 mm were stored together with 1 mL of PBS at 37° C. and 100 RPM. MDA-MB-231 breast cancer cells were inoculated at a density of 4×10^4 cells per well on a 48-well plate prepared with DMEM supplemented with 10% FBS and 1% penicillin/streptomycin and cultured at 37° C. for one day. After removal of the existing medium, cancer cells were treated with 50 μL of fresh medium and 150 μL of PBS containing released 6-MP, and incubated at 37° C. for 24 h. For the WST-1 assay, the cells were washed with PBS, treated with EZ-Cytox solution in each experimental group, incubated at 37° C. for 2 hours, and then measured by absorbance at 450 nm to confirm the cell apoptosis effect.

Compound: S=c1nc[nH]c2nc[nH]c12
- breast cancer cells died / killed: 70%

Compound: Sc1ncnc2nc[nH]c12 [6-MP, 6-mercaptopurine]
- breast cancer cells died / killed: 21%
